ChEMBL document CHEMBL6096639, “Discovery of the first selective and potent PROTAC degrader for the pseudokinase TRIB2” (Eur J Med Chem, 2025)
Blank lines part the entries; values can stand above or below the compound they belong to. Activity calls are given as the source filed them. The rule behind the calls is not given here.

Experiments:
[1] = molecular target: T1, Protein cereblon/Tribbles homolog 2 (Homo sapiens, UniProt Q96SW2+Q92519); assay: PROTAC activity at CRBN/TRIB2 in human PC-3 cells assessed as induction of TRIB2 degradation by measuring maximal efficacy at 100 nM measured after 24 hrs by immunoblot analysis relative to control; type: cell-based
Target sequence in this assay (Q96SW2 whole entry, looked up, one chain of several): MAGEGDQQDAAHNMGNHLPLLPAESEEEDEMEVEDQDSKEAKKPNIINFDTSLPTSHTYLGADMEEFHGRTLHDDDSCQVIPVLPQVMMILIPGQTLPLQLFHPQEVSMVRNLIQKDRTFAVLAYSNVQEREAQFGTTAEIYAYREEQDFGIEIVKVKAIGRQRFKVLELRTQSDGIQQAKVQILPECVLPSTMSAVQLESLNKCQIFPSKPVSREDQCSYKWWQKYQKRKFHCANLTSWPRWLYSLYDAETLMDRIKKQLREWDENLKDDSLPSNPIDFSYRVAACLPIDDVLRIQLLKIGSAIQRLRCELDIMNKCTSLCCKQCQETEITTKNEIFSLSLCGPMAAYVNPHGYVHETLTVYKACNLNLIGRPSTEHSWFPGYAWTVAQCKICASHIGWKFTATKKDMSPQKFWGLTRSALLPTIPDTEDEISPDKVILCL

[2] = molecular target: T1, Protein cereblon/Tribbles homolog 2; assay: PROTAC activity at CRBN/TRIB2 in human PC-3 cells assessed as induction of TRIB2 degradation by measuring maximal efficacy at 1 nM measured after 24 hrs by immunoblot analysis relative to control; type: cell-based
Target sequence in this assay (Q96SW2 whole entry, looked up, one chain of several): as above

[3] = test system: PC-3; assay: Antiproliferative activity against human PC-3 cells assessed as cell viability for 5 days by CTG assay; type: functional, cell-based; settings: PC-3, 120 h
[4] = Antiproliferative activity against human LTL-331R-CL cells assessed as cell viability for 5 days by CTG assay; type: functional, cell-based; settings: 120 h
[5] = molecular target: T1, Protein cereblon/Tribbles homolog 2; assay: PROTAC activity at CNRB/TRIB2 in human LTL-331R-CL cells assessed as induction of TRIB2 degradation at 1 uM for 4 hrs by immunoblotting assay; type: cell-based
Target sequence in this assay (Q96SW2 whole entry, looked up, one chain of several): as above

[6] = molecular target: T2, Tribbles homolog 2 (Homo sapiens) (UniProt Q92519); assay: Induction of thermal stabilization of TRIB2 in human PC-3 cells […] at 2 uM preincubated for 3 hrs followed by compound washout and incubated under 45 to 50 degreeC for 3 mins by CETSA based immunoblotting analysis; type: cell-based
T2 sequence (whole entry): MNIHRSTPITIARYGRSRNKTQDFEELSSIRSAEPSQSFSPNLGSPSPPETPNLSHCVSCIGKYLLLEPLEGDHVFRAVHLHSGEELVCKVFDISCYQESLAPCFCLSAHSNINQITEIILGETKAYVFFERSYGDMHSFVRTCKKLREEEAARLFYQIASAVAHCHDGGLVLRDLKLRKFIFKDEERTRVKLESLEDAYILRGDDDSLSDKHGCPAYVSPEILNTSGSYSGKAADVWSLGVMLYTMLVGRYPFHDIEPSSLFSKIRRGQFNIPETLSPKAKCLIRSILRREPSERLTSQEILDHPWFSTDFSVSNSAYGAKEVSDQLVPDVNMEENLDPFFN

[7] = molecular target: T1, Protein cereblon/Tribbles homolog 2; assay: PROTAC activity at CRBN/TRIB2 in human NCI-H660 cells assessed as induction of TRIB2 degradation at 1 uM by immunoblotting analysis; type: cell-based
Target sequence in this assay (Q96SW2 whole entry, looked up, one chain of several): as the sequence (Q96SW2 whole entry, looked up, one chain of several) above

[8] = molecular target: T1, Protein cereblon/Tribbles homolog 2; assay: PROTAC activity at CNRB/TRIB2 in human PC-3 cells assessed as induction of TRIB2 degradation at 0.5 uM pretreated with pomalidomide followed by compound addition and measured after 16 hrs by immunoblotting assay; type: cell-based
Target sequence in this assay (Q96SW2 whole entry, looked up, one chain of several): as the sequence (Q96SW2 whole entry, looked up, one chain of several) above

[9] = molecular target: T3, von Hippel-Lindau disease tumor suppressor/Tribbles homolog 2 (Homo sapiens) (UniProt P40337+Q92519); assay: PROTAC activity at VHL/TRIB2 in human PC-3 cells assessed as induction of TRIB2 downregulation at 1000 nM for 24 hrs by immunoblotting analysis; type: cell-based
[10] = molecular target: T1, Protein cereblon/Tribbles homolog 2; assay: PROTAC activity at CRBN/TRIB2 in human PC-3 cells assessed as induction of TRIB2 degradation for 24 hrs by immunoblot analysis; type: cell-based
[11] = test system: PC-3; assay: Antiproliferative activity against human PC-3 cells assessed as cell viability at 1 uM by CTG assay; type: functional, cell-based
[12] = molecular target: T1, Protein cereblon/Tribbles homolog 2; assay: PROTAC activity at CNRB/TRIB2 in human LTL-331R-CL cells assessed as induction of TRIB2 degradation at 1 uM for 4 hrs by comprehensive proteomic analysis using a tandem mass tag (TMT) labeled mass spectrometry; type: cell-based
Target sequence in this assay (Q96SW2 whole entry, looked up, one chain of several): as the sequence (Q96SW2 whole entry, looked up, one chain of several) above

[13] = molecular target: T1, Protein cereblon/Tribbles homolog 2; assay: PROTAC activity at CRBN/TRIB2 in human LTL-331R-CL cells assessed as induction of TRIB2 degradation at 1 uM by immunoblotting analysis; type: cell-based
[14] = molecular target: T3, von Hippel-Lindau disease tumor suppressor/Tribbles homolog 2 (Homo sapiens); assay: PROTAC activity at VHL/TRIB2 in human PC-3 cells assessed as induction of TRIB2 degradation at 100 nM for 24 hrs by immunoblotting analysis; type: cell-based
[15] = test system: LTL-331R-CL; assay: Antiproliferative activity against human LTL-331R-CL cells assessed as cell viability at 1 uM by CTG assay; type: functional, cell-based
[16] = molecular target: T1, Protein cereblon/Tribbles homolog 2; assay: PROTAC activity at CRBN/TRIB2 in human PC-3 cells assessed as half maximal degradation by measuring half life at 500 nM by immunoblotting analysis; type: cell-based
[17] = molecular target: T1, Protein cereblon/Tribbles homolog 2; assay: PROTAC activity at CRBN/TRIB2 in human PC-3 cells assessed as induction of TRIB2 degradation at 500 nM in presence of 1 uM bortezomib proteasome inhibitor pretreatment for 16 hrs by Western blot analysis; type: cell-based
[18] = test system: A549; assay: Antiproliferative activity against human A549 cells assessed as cell viability; type: functional
[19] = molecular target: T4, Tribbles homolog 2 (Homo sapiens, UniProt Q92519); assay: Inhibition of TRIB2 (unknown origin) assessed as reduction in ATP binding affinity incubated for 120 mins in presence of Mg/ATP by radiometric kinase assay
T4 sequence (Q92519 whole entry): T2 sequence (whole entry)

[20] = test system: HepG2; assay: Antiproliferative activity against human HepG2 cells assessed as cell viability; type: functional

T3 sequence (P40337 whole entry, looked up, one chain of several): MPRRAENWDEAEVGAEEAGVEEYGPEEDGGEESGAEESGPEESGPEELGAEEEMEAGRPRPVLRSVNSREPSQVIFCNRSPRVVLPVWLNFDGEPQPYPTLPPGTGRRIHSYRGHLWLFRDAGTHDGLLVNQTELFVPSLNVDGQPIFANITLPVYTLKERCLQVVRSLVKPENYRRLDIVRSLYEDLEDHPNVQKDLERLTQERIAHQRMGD

- Emax [1]: 58.2%
SMILES: O=C1CCC(N2C(=O)c3ccc(NCCCCCCCC(=O)N4CCc5ccc(NC(=O)c6n[nH]c7ccc(-c8cccnc8F)cc67)cc5C4)cc3C2=O)C(=O)N1 (stereo unspecified)

- Emax [2]: 24.5%
- Emax [1]: 85.6%
SMILES: O=C1CCC(N2C(=O)c3ccc(NCCCCCC(=O)N4CCc5ccc(NC(=O)c6n[nH]c7ccc(-c8cccnc8F)cc67)cc5C4)cc3C2=O)C(=O)N1 (stereo unspecified)

- Emax [1]: 84.1%
SMILES: O=C1CCC(N2C(=O)c3ccc(NCCCC(=O)N4CCc5ccc(NC(=O)c6n[nH]c7ccc(-c8cccnc8F)cc67)cc5C4)cc3C2=O)C(=O)N1 (stereo unspecified)

- IC50 [3]: > 5000 nM
SMILES: CN1C(=O)CCC(N2C(=O)c3ccc(NCCCCCCCCCC(=O)N4CCc5ccc(NC(=O)c6n[nH]c7ccc(-c8cccnc8F)cc67)cc5C4)cc3C2=O)C1=O (stereo unspecified)
- IC50 [4]: > 30000 nM

- Activity [5]: Active
- Activity [6]: Active
- IC50 [3]: 3.9 nM
- Activity [7]: Time-dependent-effect
- Activity [8]: inactive
- Activity [9]: Active; Mild Trib2 Degradation Observed
- Activity [10]: Dose-dependent-effect
- DC50 [10]: 16.8 nM
- Emax [1]: 92%
- Activity [12]: Active
- Activity [13]: Active
- Activity [14]: 100%
- T1/2 [16]: > 5.5 h
- Activity [17]: inactive
SMILES: O=C1CCC(N2C(=O)c3ccc(NCCCCCCCCCC(=O)N4CCc5ccc(NC(=O)c6n[nH]c7ccc(-c8cccnc8F)cc67)cc5C4)cc3C2=O)C(=O)N1 (stereo unspecified)
- Activity [11]: Active
- IC50 [4]: 30.4 nM
- Activity [15]: Active

- Activity [6]: Active
- IC50 [3]: 802 nM
- IC50 [19]: 65.2 nM
SMILES: O=C(Nc1ccc2c(c1)CNCC2)c1n[nH]c2ccc(-c3cccnc3F)cc12
- Activity [18]: 12%
- IC50 [4]: 868 nM
- Activity [20]: 10%

- IC50 [3]: > 5000 nM
SMILES: Nc1cccc2c1C(=O)N(C1CCC(=O)NC1=O)C2=O (stereo unspecified) [POMALIDOMIDE]
- IC50 [4]: > 30000 nM
